Measurements: patent US20050209339A1, “Methods for the treatment of sinusitis” (priority 2002, published 2005)

Assays:
[1] = tested on: chronic rhinosinusitis; assay: double-blind placebo-controlled clinical trial in chronic rhinosinusitis; assay type: in vivo, human; settings: 625 mg terbinafine base equivalent as hydrochloride orally once daily for 6 weeks, versus placebo, patients
Procedure: A prospective, double-blind, parallel-group, multi-center, placebo-controlled study comparing the safety and efficacy of 625 mg of terbinafine base equivalent as hydrochloride daily, or a molar equivalent in other acid addition salt or free base form, for 6 weeks, versus placebo in the treatment of chronic rhinosinusitis is performed. The study duration is a total of 18 weeks and consists of three periods: a) screening (3 weeks, from week −3 to −1); b) treatment (6 weeks, from baseline of treatment week to week +6); and c) follow-up assessment (9 weeks, from week +7 to +15).
Sixty patients, male and female, between the age of 18 and 65 years, are randomized to receive six weeks of terbinafine therapy or placebo.
Additional inclusion criteria for admission to the study is as follows: • Patients with signs and symptoms of chronic non-invasive rhinosinusitis (CRS) for at least 3 months prior to screening. […]

[2] = tested on: molds and dimorphic fungi, pathogenic yeasts of the genera Pityrosporum, Candida and Rhodotorula; settings: many pathogenic yeasts (Pityrosporum, Candida, Rhodotorula); cited from earlier work
[3] = tested on: ergosterol biosynthesis (squalene epoxidase); settings: blocks squalene epoxidase; cited from earlier work

Question: For `CN(C/C=C/C#CC(C)(C)C)Cc1cccc2ccccc12` [Terbinafine], which “efficacy relative to primary (CT total opacification score) and secondary variables” value [1] is on record?
Answer: Its value is “therapeutically effective regimen”.

Question: And the activity in vitro [2]?
Answer: Its activity in vitro is “active in vitro”.

Question: And the “inhibition of ergosterol biosynthesis” value [3]?
Answer: Its value is “potent inhibitor”.
